From PubChem BioAssay (NCI) come the findings set out here.

SMILES strings stand for the structures.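 96-well plates; 48 h exposure; 5 concentrations. Endpoints by linear interpolation between flanking doses. Not reached: highest tested concentration assigned. TGI: total growth inhibition.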

Test systems include DLD-1 colon; DMS 114 small cell lung; DMS 273 small cell lung; HOP-18 NSCLC; KM20L2 colon; LXFL 529 NSCLC; M19-MEL melanoma; RXF-631 renal; XF 498 CNS; SNB-78 CNS.
Common to all, as to assay: growth of human tumour cells (NCI), 48 h

As for `COC(=O)C(Cc1nc2ccccc2[nH]c1=O)C(=O)C(=O)Nc1ccc(F)cc1` (configuration not stated), the TGI in the test on DLD-1 colon was > 100 µM; in the test with DMS 114 small cell lung it was 80.7 µM; in the test with DMS 273 small cell lung it was > 100 µM; with HOP-18 NSCLC, > 100 µM; in the test with KM20L2 colon, > 100 µM; in the test on LXFL 529 NSCLC, 30 µM. Also, the TGI with M19-MEL melanoma, in the test with RXF-631 renal and in the test on XF 498 CNS was > 100 µM throughout.
With `COC1=CC(=O)C2C(C1=O)C(c1ccc(Cl)cc1)[C@@H]2C` (some centres not stated), the TGI in the test on DLD-1 colon is 70.5 µM; in the test with DMS 114 small cell lung, 47.7 µM; in the test with DMS 273 small cell lung it was > 100 µM; in the test with HOP-18 NSCLC it was 25.2 µM; with KM20L2 colon, > 100 µM; in the test on LXFL 529 NSCLC it was 32.7 µM. The TGI in the test on M19-MEL melanoma was 97.9 µM; with SNB-78 CNS, > 100 µM; in the test on XF 498 CNS it was 37.5 µM.
For `Cc1nc2ccc(N)cc2[nH]c1=O`, the TGI in the test with DLD-1 colon, in the test on DMS 273 small cell lung, with KM20L2 colon, with LXFL 529 NSCLC, with M19-MEL melanoma and with RXF-631 renal was > 100 µM throughout. For the same compound, in the test with SNB-78 CNS, the TGI was > 100 µM.
Regarding `N#CC1CCCCC1NC1(C#N)CCCCC1` (configuration not stated), the TGI with DLD-1 colon, with DMS 114 small cell lung, in the test with DMS 273 small cell lung, with KM20L2 colon, with LXFL 529 NSCLC and in the test with SNB-78 CNS was > 100 µM in each case. Further, the TGI with XF 498 CNS is > 100 µM.
Regarding `COC(=O)N/N=C(/c1nc2ccc([N+](=O)[O-])cc2[nH]c1=O)C(O)c1ccc(OC)c(OC)c1` (configuration not stated), the TGI was > 100 µM with DLD-1 colon; 51.3 µM in the test with DMS 114 small cell lung; 63.7 µM with DMS 273 small cell lung; > 100 µM with HOP-18 NSCLC; > 100 µM with KM20L2 colon; > 100 µM with LXFL 529 NSCLC. Also, the TGI in the test on M19-MEL melanoma, in the test with RXF-631 renal, with SNB-78 CNS and in the test on XF 498 CNS was > 100 µM each time.
Regarding `C=C(C)CC(C)(c1cc2ccccc2n1C)N1CCOCC1` (configuration not stated), the TGI with DLD-1 colon, in the test on DMS 273 small cell lung, in the test on HOP-18 NSCLC, in the test on KM20L2 colon, in the test on LXFL 529 NSCLC and in the test on M19-MEL melanoma was > 100 µM each time. For the same compound, the TGI in the test with RXF-631 renal and with XF 498 CNS was > 100 µM in each case.
`CCOC(=O)CC(NCc1ccc(N=Cc2nc3ccc(C(F)(F)F)cc3nc2-c2ccccc2)cc1)C(=O)OCC` (configuration not stated): the TGI in the test with DLD-1 colon, with DMS 114 small cell lung, in the test with DMS 273 small cell lung, in the test with HOP-18 NSCLC, with KM20L2 colon and with LXFL 529 NSCLC was > 100 µM throughout. Besides, the TGI with M19-MEL melanoma was > 100 µM; in the test on SNB-78 CNS, > 100 µM; in the test with XF 498 CNS it was 40.5 µM.
Consider `C[N+]1(C)C[C@@H](O)C[C@@H]1C(=O)[O-]`, for which the TGI in the test on DLD-1 colon, with DMS 114 small cell lung, with DMS 273 small cell lung, with HOP-18 NSCLC, in the test with KM20L2 colon and in the test on LXFL 529 NSCLC was > 100 µM in each case. In addition, the TGI in the test on M19-MEL melanoma, with SNB-78 CNS and in the test on XF 498 CNS was > 100 µM throughout.
Regarding `CSc1nc2nc(C(O)C(O)C(O)CO)cnc2c(=O)[nH]1` (configuration not stated), the TGI with DLD-1 colon, in the test with DMS 114 small cell lung, with DMS 273 small cell lung, in the test on KM20L2 colon, in the test with LXFL 529 NSCLC and in the test with M19-MEL melanoma was > 100 µM in each case. The TGI in the test with SNB-78 CNS and in the test with XF 498 CNS was > 100 µM in each case.
In the case of `CCOC(=O)C1=C(c2ccccc2)N(C(C)=O)Cc2ccccc21`, the TGI is > 100 µM with DLD-1 colon; 25.9 µM in the test on DMS 114 small cell lung; 29.8 µM with DMS 273 small cell lung; 99.4 µM with HOP-18 NSCLC; 53.7 µM in the test on KM20L2 colon; > 100 µM in the test with LXFL 529 NSCLC. In addition, the TGI came out at 39.3 µM with M19-MEL melanoma and 25 µM with XF 498 CNS.
For the compound `CCSc1nnc(-c2ccccc2)nc1Cc1ccc(OC)cc1`, the TGI in the test on DLD-1 colon, in the test with DMS 273 small cell lung, in the test with HOP-18 NSCLC, in the test on KM20L2 colon, in the test with LXFL 529 NSCLC and in the test on M19-MEL melanoma was > 100 µM each time. Also, the TGI in the test on SNB-78 CNS and in the test on XF 498 CNS was > 100 µM in each case.
